Reference: ChEMBL document CHEMBL4418285, “1-cyano-pyrrolidine compounds as usp30 inhibitors” (2018)

Experiments:
[1] = molecular target: T1, Ubiquitin carboxyl-terminal hydrolase 30 (Homo sapiens, UniProt Q70CQ3); experiment: Inhibition of human USP30 catalytic domain (57 to 517 residues) using ubiquitin-rhodamine 110 as substrate preincubated for 30 min followed by substrate addition and measured after 2 hrs by fluorescence intensity kinetic assay
T1 sequence (Q70CQ3 whole entry): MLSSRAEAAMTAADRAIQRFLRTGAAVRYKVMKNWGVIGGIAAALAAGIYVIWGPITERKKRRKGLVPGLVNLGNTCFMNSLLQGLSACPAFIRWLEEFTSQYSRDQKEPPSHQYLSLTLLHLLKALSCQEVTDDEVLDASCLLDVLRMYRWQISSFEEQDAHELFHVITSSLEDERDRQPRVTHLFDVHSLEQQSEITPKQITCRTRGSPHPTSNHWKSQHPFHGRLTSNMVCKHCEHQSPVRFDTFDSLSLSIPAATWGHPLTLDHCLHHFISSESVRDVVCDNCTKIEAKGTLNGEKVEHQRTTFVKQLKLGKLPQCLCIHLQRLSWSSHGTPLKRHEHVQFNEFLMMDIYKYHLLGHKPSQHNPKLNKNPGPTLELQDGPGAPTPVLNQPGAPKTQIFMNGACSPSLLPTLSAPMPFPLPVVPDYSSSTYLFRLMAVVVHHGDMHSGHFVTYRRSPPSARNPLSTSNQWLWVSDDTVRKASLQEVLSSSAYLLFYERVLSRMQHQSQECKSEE

[2] = molecular target: T1, Ubiquitin carboxyl-terminal hydrolase 30; experiment: Inhibition of untagged human USP30 catalytic domain (57 to 517 residues) expressed in Escherichia coli using TAMRA labeled ubiquitin peptide as substrate preincubated for 30 min followed by substrate addition and measured after 2 hrs by fluorescence polarization assay

Compound | IC50 [1] | IC50 [2]
N#CN1C[C@H]2CCN(C(=O)N3CCc4ccccc43)[C@H]2C1 | 1000 to 10000 nM | –
N#CN1C[C@H]2CCN(C(=O)Nc3cc(Cl)ccc3F)[C@H]2C1 | – | 100 to 1000 nM
N#CN1CC[C@@H](NC(=O)c2ccc(N3CCOCC3)cc2)C1 | 100 to 1000 nM | –
COc1cc(-c2cc(C(=O)N(C)[C@@H]3CCN(C#N)C3)on2)ccn1 | 100 to 1000 nM | –
N#Cc1ccc(NC(=O)N2CC[C@@H]3CN(C#N)C[C@@H]32)c(F)c1 | – | 100 to 1000 nM
